≈ marks a conversion by molar mass, not a printed value.
Columns and labels:
[1] = Antioxidant capacity by chemiluminescence (Photochem Analytik Jena); conditions: for μg of sample for 1 μg of Trolox: Trolox equivalent, lower = stronger antioxidant
Procedure: This test is used to determine the antioxidant capacity of the molecules. It is a method that generates free radicals by a photochemical signal. The intensity of the oxidation is 1000 times greater than that obtained under normal conditions.
The detection is carried out by chemiluminescence. It enables the evaluation of hydrosoluble and liposoluble anti-oxidant molecules or extracts.
The results are expressed respectively in equivalent quantity of vitamin C or Trolox (6-hydroxy-2,5,7,8-tetramethylchroman-2-carboxylic acid). The sensitivity is of the order of a nanomole.
The antioxidant activity studied in this test represents the capacity to trap specifically superoxide anions by chemiluminescence.
The quantified results are expressed in Trolox equivalent (standard), i.e. in “μg of product for 1 μg of Trolox”. This signifies that a quantity×of sample is needed to obtain an activity equivalent to the activity detected for 1 μg of standard. It is an anti-oxidant power relative to a reference, which makes it possible to disregard the concentration tested.
The superoxide radical: 02^0− is generated by a photochemical reaction: L+hv (UV)+O2→L*O2→L^0++O2^0−
A part of the superoxide anions is quenched by the anti-oxidants. The remaining free radicals are quantified by chemiluminescence. L^0++O2^0−→N2+AP*^2−→AP^2−+hv (luminescence)

mushroom tyrosinase [2] = target: T1, mushroom tyrosinase (Agaricus bisporus, UniProt C7FF04); experiment: Tyrosinase inhibition test (in vitro acellular depigmenting activity); type: biochemical; conditions: polyphenol oxidase (PPO) function; reference molecules for the test
T1 construct: purchased Sigma T-3824
T1 sequence (C7FF04 1-392 limits assumed): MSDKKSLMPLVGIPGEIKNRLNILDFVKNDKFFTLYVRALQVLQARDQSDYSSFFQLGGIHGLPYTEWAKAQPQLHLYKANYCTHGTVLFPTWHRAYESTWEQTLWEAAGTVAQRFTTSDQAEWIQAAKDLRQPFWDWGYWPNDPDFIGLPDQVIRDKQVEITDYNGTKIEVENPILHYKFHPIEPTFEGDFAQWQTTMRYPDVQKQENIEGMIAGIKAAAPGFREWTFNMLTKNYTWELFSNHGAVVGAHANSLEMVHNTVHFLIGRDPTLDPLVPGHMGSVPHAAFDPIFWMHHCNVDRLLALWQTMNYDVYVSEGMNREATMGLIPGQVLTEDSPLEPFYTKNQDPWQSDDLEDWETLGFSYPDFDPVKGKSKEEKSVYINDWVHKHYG

B16-F10 cells = experiment: Melanin assay test in B16-F10 cells; type: cell-based, murine; conditions: Mus musculus, B16-F10, 72 h; read-out: B16 activity results -% at X μM
Procedure: B) Melanin Assay Test in B16-F10 Cells:
This involves a test of measuring the synthesis of melanin by colorimetric assay on a murine melanoma cell line: the B16-F10 line. This test makes it possible to evaluate the depigmenting power of active ingredients.
The B16-F10 cells are cultured in 96-well plates in DMEM medium supplemented with FCS (foetal calf serum), and incubated for 24 hours at 37° C., 5% CO2. The cells are then stimulated with 0.1 μM α-MSH (to stimulate the synthesis of melanin, the stimulation observed is around 150%) and treated for 72 hours with the active ingredients to be tested. Each concentration of active ingredient is tested at least in triplicate. The total melanin followed by the intracellular melanin dissolved in the lysis buffer are then assayed by absorbance reading at 405 nm. The total proteins are assayed in the lysate and the results are expressed in mg melanin/mg proteins. The percentage of activity is calculated as follows: […]
A negative value indicates an inhibition, whereas a positive value indicates an induction of the synthesis of melanin.
• B16-F10 cell line between P10 and P20 (murine melanocytes) (ATCC, CRL-6475)
Reagents: • DMEM without phenol red (GibcoBRL, 31053-028), 200 mM Glutamax-I Supplement (GibcoBRL, 35050-038), D-PBS (GibcoBRL, 14190-094), Foetal calf serum (Invitrogen, 10270-098), Trypsine-EDTA (GibcoBRL, 25300-054), NaOH (Sigma, S8045-500G), DMSO (Sigma, 471267-1L), Nle, Phe—Melanocyte Stimulating Hormone (Sigma, M-8764), Melanin (Sigma, M-0418), BCA-Copper (Sigma, B9643 and C2284), BSA (Sigma, P0914) C) Test for the Study of the Antioxidant Capacity by Chemiluminescence (Photochem Analytik Jena) Principle: […]

[3] = tested on: P. acnes IP53.117 ATCC6919; experiment: Minimal inhibitory concentration (MIC), microdilution; type: cell-based, Propionibacterium acnes; conditions: for MIC: Cutibacterium acnes, P. acnes IP53.117 ATCC6919
Procedure: (§1) E) Determination of the Minimal Inhibitory Concentration (MIC): This test is used to determine the antibacterial activity of a compound. Tests are carried out with 4 bacterial strains using the principle of microdilution. The MIC are determined by micromethod in liquid medium. The successive dilutions according to the products tested in the culture broth (Trypcase soy) are carried out on 96 well microplates in a final volume of 0.1 ml. The wells are seeded with 0.01 ml of bacterial suspensions titrated at around 10^7 UFC/ml. The microplates are incubated under optimal growth conditions and the MIC is read visually.

[4] = tested on: Escherichia coli IP53126 ATCC8739; experiment: as above; type: cell-based
Procedure: as §1

[5] = tested on: Staphylococcus aureus IP4.83 ATCC6538; experiment: as above; type: cell-based
Procedure: as §1

[6] = tested on: Staphylococcus epidermidis IP6821; experiment: as above; type: cell-based
Procedure: as §1

[7] = Protection of linoleic acid following a UV stress (Fenton conditions, MDA-TBA assay); parameters: % Protection Linoleic acid under UV/Fenton: concentration or dose not given beside the values; conditions: UV + H2O2 + iron II
Source text: D) Test of Protection of Linoleic Acid Following a UV Stress. Target: Protection of Linoleic Acid Under Fenton Conditions, UV Irradiation Linoleic acid belongs to the family of polyunsaturated fatty acids (PUFA) (AGPI). Sensitive to oxidation, linoleic acid is a favoured target for oxygenated free radicals (OFR) in biological media. When biological membranes are exposed to an oxidative stress, the components the most affected are the phospholipids constituted of PUFA and cholesterol. Their degradation leads to lipidic peroxidation and generally to destructuring. Lipidic peroxidation is a self-catalysing process which generally involves OFR. Lipidic peroxidation is in part responsible for skin ageing. The method employed to evaluate lipid peroxidation is based on the coupling of thiobarbituric acid (TBA) and secondary degradation products leading to coloured compounds detectable by spectrofluorometry. The essential secondary compound of final degradation is malondialdehyde, MDA. MDA is a carcinogenic and mutagenic aldehyde, it acts on proteins and DNA. The sample to be tested is placed in contact with linoleic acid in a weight/weight ratio. The sample undergoes an MED (Minimal Erythemal Dose) irradiation under Fenton conditions, namely in the presence of H202 and iron II in a solar simulator. Following irradiation, the reaction mixture is taken up in methanol and derivatised at 90° C. with TBA. Chromogene, the MDA-TBA complex, representative of the equimolar production of MDA is assayed by fluorimetry (excitation at 525 nm, emission at 549 nm). The results are expressed in fluorescence units, as a function of a MDA-TBA control range then expressed as concentration of the MDA-TBA complex. Then, the percentage of the starting MDA/linoleic acid (LA) ratio is determined. Then the percentage of protection of linoleic acid is determined. The product assay is expressed as weight/weight ratio, in other words in weight percentage with respect to the total quantity of linoleic acid. The maximal MDA level is determined by the condition UV+H202+iron II (F). The percentage of protection of linoleic acid represents: the % ratio of MDA under maximal stress conditions untreated over the % of MDA under stress conditions treated by the product.

mushroom tyrosinase [8] = target: T1, mushroom tyrosinase; experiment: Tyrosinase inhibition test (in vitro acellular depigmenting activity); type: biochemical; conditions: class symbol; assay from 250 to 150 μM; overall tyrosinase activity (MPMOg), L-tyrosine substrate
Source text: A) Determination of the Depigmenting Activity in an in vitro Acellular Test: Tyrosinase Inhibition Test)
This test is used to evaluate the depigmenting activity of the molecules tested. Tyrosinase is a limiting enzyme in melanogenesis.
It belongs to the family of oxydoreductases. It has in particular the function: monophenol monooxygenase (MPMO) and polyphenol oxidase (PPO).
It is synthesised at the level of the melanocytes. It is activated during its migration towards melanosome […]. It transforms tyrosine into DOPA then dopaquinone, which leads in fine to a polymerisation, i.e. a production of pigments (see diagram below).
The substrate: L-tyrosine, is transformed into L-DOPA by the monophenol mono oxygenase function which is transformed by the polyphenol oxidase function from tyrosinase into dopaquinone. The latter is going to self-oxidise into dopachrome which is measured by spectrophotometry at 490 nm.
More precisely, it is the overall tyrosinase activity (MPMOg) which is measured since it is the dopachrome in fine that is assayed. Thus the products tested on MPMOg (=measurement of the activity on PPO and MPMO) can cumulate the inhibition of the 2 functions, • inhibiting uniquely the MPMO function stricto sensus (transformation of tyrosine into DOPA) as a complement to the PPO test, • could inhibit PPO uniquely. General Experimental Conditions:

| Structure (SMILES) | Activity (antioxidant, interpretation scale) ([1]; reference products of the interpretation scale) | IC50 (mushroom tyrosinase [2]) [µM] | inhibition at 10 µM (B16-F10 cells) [%] | μg of sample for 1 μg of Trolox [1] | antibacterial activity against Propionibacterium acnes (in words) [3] | MIC [3] [µg/mL] | MIC [4] [µg/mL] | MIC [5] [µg/mL] | MIC [6] [µg/mL] | % Protection Linoleic acid under UV/Fenton [7] [%] | Tyrosinase depigmenting activity result (mushroom tyrosinase [8]) | inhibition at 20 µM (B16-F10 cells) [%] |
| --- | --- | --- | --- | --- | --- | --- | --- | --- | --- | --- | --- | --- |
| O=C1O[C@H]([C@@H](O)CO)C(O)=C1O [Vitamin C, reference compound] | Very good (0.1 to 3.0) | 20 to 40 | – | – | – | – | – | – | – | – | – | – |
| CCCCCCCCOc1cc(O)ccc1Sc1ccc(O)cc1O [Example 7, 4-(4-hydroxy-2-(octyloxy)phenylthio)benzene-1,3-diol] | – | – | 50 | 3.4 μg of sample for 1 μg of Trolox | strong antibacterial activity | 0.09 (≈ 0.248 µM) | 390 (≈ 1080 µM) | 0.78 (≈ 2.15 µM) | 0.39 (≈ 1.08 µM) | 92 | + + + | – |
| CCCCCCCCCCOc1cc(O)ccc1Sc1ccc(O)cc1O [Example 12, 4-(2-(decyloxy)-4-hydroxyphenylthio)benzene-1,3-diol] | – | – | – | 3.4 μg of sample for 1 μg of Trolox | strong antibacterial activity | 0.09 (≈ 0.23 µM) | 780 (≈ 2000 µM) | 0.78 (≈ 2 µM) | 0.39 (≈ 0.999 µM) | 96 | – | – |
| CCCCCCCCCCCCCCCCOc1cc(O)ccc1Sc1ccc(O)cc1O [Example 13, 4-(2-(hexadecyloxy)-4-hydroxyphenylthio)benzene-1,3-diol] | – | – | – | 5.7 μg of sample for 1 μg of Trolox | – | 90 (≈ 190 µM) | – | 190 (≈ 400 µM) | 156 (≈ 329 µM) | 95 | – | – |
| CCCCOc1cc(O)ccc1Sc1ccc(O)cc1O [Example 5, 4-(2-butoxy-4-hydroxyphenylthio)benzene-1,3-diol] | – | – | – | 2.8 μg of sample for 1 μg of Trolox | – | 3 (≈ 9.79 µM) | – | 6 (≈ 19.6 µM) | 3 (≈ 9.79 µM) | 89 | + + + | 27 |
